Source: patent publication US11155849B2, “IMP-producing microorganism and method of producing IMP using the same” (CJ CHEILJEDANG CORPORATION, priority 2017, dated 2021)

Assays:
[1] = test system: CJI0323; type: cell-based, Corynebacterium stationis; conditions: strain CJI0323
Description: (§1) ATCC6872 (10^7 cells/mL to 10^8 cells/mL) was suspended in a phosphate buffer (pH 7.0) or in a citrate buffer (pH 5.5) in order to prepare an ATCC6872-derived IMP-producing strain, and then mutation was induced by UV treatment. The resultants were washed twice with a 0.85% saline solution, and then diluted and smeared on a medium containing an appropriate concentration of a substance to be resistant to a minimal medium containing 1.7% agar. Thereafter, colonies were obtained. Each colony was cultured in a nutrient medium and cultured in a seed medium for 24 hours. After 3 to 4 days of culturing in a fermentation medium, colonies with the highest amount of IMP accumulated in the culture medium were selected. In order to produce a high-concentration IMP producing-strain, and to provide adenine auxotrophy, guanine leakage, lysozyme susceptibility, 3,4-dihydroproline resistance, streptomycin resistance, azetidine carboxylic acid resistance, thiaproline resistance, azaserine resistance, sulfaguanidine resistance, norvaline resistance, and trimethoprim resistance, the procedures above were performed sequentially for each substance.
(§2) The compositions of the media are as follows: • Minimal medium: 2% glucose, 0.3% sodium sulfate, 0.1% […], 0.3% K2HPO4, 0.3% magnesium sulfate, calcium chloride (10 mg/L), iron sulfate (10 mg/L), zinc sulfate (1 mg/L), manganese chloride (3.6 mg/L), L-cysteine (20 mg/L), calcium pantothenate (10 mg/L), thiamine hydrochloride (5 mg/L), biotin (30 μg/L), adenine (20 mg/L), guanine (20 mg/L), pH 7.3 • Nutrient medium: 1% peptone, 1% meat juice, 0.25% sodium chloride, 1% yeast extract, 2% agar, pH 7.2 • Seed medium: 1% glucose, 1% peptone, 1% meat juice, 1% yeast extract, 0.25% sodium chloride, adenine (100 mg/L), guanine (100 mg/L), pH 7.5 • Fermentation medium: 0.1% sodium glutamate, 1% ammonium chloride, 1.2% magnesium sulfate, 0.01% calcium chloride, iron sulfate (20 mg/L), manganese sulfate (20 mg/L), zinc sulfate (20 mg/L), copper sulfate (5 mg/L), L-cysteine (23 mg/L), alanine (24 mg/L), nicotinic acid (8 mg/L), biotin (45 μg/L), thiamin hydrochloride (5 mg/L), adenine (30 mg/L), 1.9% phosphoric acid (85%), 2.55% glucose, 1.45% fructose

[2] = test system: ATCC6872; assay: Resistance/susceptibility of strain ATCC6872 to substances (minimal medium, 1.7% agar); type: cell-based, Corynebacterium stationis
Description: as §1, §2

## O=C(O)[C@@H]1CCN1 [Azetidine carboxylic acid]
[1]
  resistance: 30000 µg/mL
[2]
  resistance: 5000 µg/mL

## [N-]=[N+]=CC(=O)OC[C@H](N)C(=O)O [Azaserine]
[1]
  resistance: 100 µg/mL
[2]
  resistance: 25 µg/mL

## CCC[C@H](N)C(=O)O [Norvaline]
[1]
  resistance: 2000 µg/mL
[2]
  resistance: 200 µg/mL

## [H]/N=C(/N)NS(=O)(=O)c1ccc(N)cc1 [Sulfaguanidine]
[1]
  resistance: 200 µg/mL
[2]
  resistance: 50 µg/mL

## Lysozyme
[1]
  Lysozyme susceptibility: 8 µg/mL
[2]
  Lysozyme susceptibility: 80 µg/mL

## COc1cc(Cc2cnc(N)nc2N)cc(OC)c1OC [Trimethoprim]
[1]
  resistance: 100 µg/mL
[2]
  resistance: 20 µg/mL

## O=C(O)C1C=CCN1 (stereo not drawn) [3,4-Dihydroproline]
[1]
  resistance: 3500 µg/mL
[2]
  resistance: 1000 µg/mL

## [H]/N=C(/N)N[C@H]1[C@H](O)[C@@H](O)[C@H](O[C@@H]2O[C@@H](C)[C@](O)(C=O)[C@H]2O[C@@H]2O[C@@H](CO)[C@H](O)[C@@H](O)[C@@H]2NC)[C@@H](N/C(N)=N\[H])[C@@H]1O [Streptomycin]
[1]
  resistance: 2000 µg/mL
[2]
  resistance: 500 µg/mL

## O=C(O)[C@@H]1CSCN1 [Thiaproline]
[1]
  resistance: 100 µg/mL
[2]
  resistance: 10 µg/mL
